One assay has as its target T1, human SGLT1 (Homo sapiens, UniProt P13866).
T1 construct: expressed in transfected cells; host or cells: CHO-K1
T1 sequence (P13866 1-664): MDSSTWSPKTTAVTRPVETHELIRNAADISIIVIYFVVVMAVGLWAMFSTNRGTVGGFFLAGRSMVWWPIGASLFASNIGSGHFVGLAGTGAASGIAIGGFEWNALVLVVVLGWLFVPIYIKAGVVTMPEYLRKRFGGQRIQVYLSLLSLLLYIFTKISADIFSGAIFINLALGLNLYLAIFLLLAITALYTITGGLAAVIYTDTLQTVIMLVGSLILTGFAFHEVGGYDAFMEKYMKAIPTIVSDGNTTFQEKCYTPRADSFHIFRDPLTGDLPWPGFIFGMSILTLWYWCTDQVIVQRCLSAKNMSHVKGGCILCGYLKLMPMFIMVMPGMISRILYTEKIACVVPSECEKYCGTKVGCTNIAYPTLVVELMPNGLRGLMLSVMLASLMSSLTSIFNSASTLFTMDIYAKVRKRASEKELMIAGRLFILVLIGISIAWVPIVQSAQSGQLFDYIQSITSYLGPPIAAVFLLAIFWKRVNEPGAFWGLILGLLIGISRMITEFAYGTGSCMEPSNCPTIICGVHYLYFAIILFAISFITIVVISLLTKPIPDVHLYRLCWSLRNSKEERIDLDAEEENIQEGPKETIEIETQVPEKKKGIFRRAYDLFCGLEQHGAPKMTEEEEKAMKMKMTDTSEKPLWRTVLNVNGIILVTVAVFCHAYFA
Put plainly: SGLT1 assay: Na-dependent 14C-AMG uptake in CHO-K1 cells stably expressing human SGLT1. Particulars: for IC50: 500 μM AMG, 2 hours at 37° C. Format: cell-based. The method, boiled down: (§1)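 CHO-K1 cells stably expressing human SGLT1 or SGLT2, pretreated 24 h with 10 mM Na-butyrate, were exposed 10 min to compound (0.001-10 μM) in Na-containing HEPES/Tris buffer pH 7.4. Uptake of ^14C-AMG (500 μM final) ran 2 h at 37° C, then Na-dependent uptake was counted by scintillation.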

A further assay deals with T2, human SGLT2 (Homo sapiens, UniProt P31639).
T2 construct: expressed in transfected cells; host or cells: CHO-K1
T2 sequence (P31639 1-672): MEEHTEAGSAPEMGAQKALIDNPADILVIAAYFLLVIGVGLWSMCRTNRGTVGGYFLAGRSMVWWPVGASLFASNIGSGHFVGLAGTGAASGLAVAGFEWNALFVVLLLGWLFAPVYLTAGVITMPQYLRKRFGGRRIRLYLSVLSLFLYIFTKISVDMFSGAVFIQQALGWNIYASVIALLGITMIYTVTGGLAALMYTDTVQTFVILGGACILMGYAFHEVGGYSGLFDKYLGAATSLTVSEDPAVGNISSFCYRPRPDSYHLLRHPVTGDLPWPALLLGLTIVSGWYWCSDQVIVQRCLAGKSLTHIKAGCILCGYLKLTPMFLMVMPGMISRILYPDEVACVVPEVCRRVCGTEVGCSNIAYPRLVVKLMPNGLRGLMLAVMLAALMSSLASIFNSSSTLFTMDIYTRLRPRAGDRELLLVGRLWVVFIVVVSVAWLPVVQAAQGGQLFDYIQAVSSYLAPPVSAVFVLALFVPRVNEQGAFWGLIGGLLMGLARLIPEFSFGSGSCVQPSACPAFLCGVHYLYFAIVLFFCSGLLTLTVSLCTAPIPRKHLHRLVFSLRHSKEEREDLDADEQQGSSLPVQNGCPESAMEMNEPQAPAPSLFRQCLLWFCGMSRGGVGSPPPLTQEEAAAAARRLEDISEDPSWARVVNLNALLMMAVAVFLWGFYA
Nature of the assay: SGLT2 assay: Na-dependent 14C-AMG uptake in CHO-K1 cells stably expressing human SGLT2. Format: cell-based. The note with it: for IC50: 500 μM AMG, 2 hours at 37° C. The procedure, abridged: as §1

This passage reports IC50 and inhibition results from patent US10815210B2, “Benzocyclobutane derivatives useful as dual SGLT1 / SGLT2 modulators” (Janssen Pharmaceutica NV, priority 2016, dated 2020).

Broadly, the IC50 is the concentration at which inhibition is half-maximal. Low readings indicate greater potency, high ones weaker potency. For orientation: inhibition means the relative decrease from the control value, in per cent. Read a low inhibition as a weak effect.

As to `CN(C)c1cc(O)c([C@@H]2O[C@H](CO)[C@@H](O)[C@H](O)[C@H]2O)cc1Cc1ccc2c(c1)CC2` [Compound 22, (2S,3R,4R,5S,6R)-2-(5-((1,2-dihydrocyclobutabenzen-4-yl)methyl)-4-(dimethylamino)-2-hydroxyphenyl)-6-(hydroxymethyl)-tetrahydro-2H-pyran-3,4,5-triol], the IC50 was 12 nM against human SGLT1 and 3 nM against human SGLT2.
Consider `[2H]C([2H])(c1ccc2c(c1)CC2)c1cc([C@@H]2O[C@H](CO)[C@@H](O)[C@H](O)[C@H]2O)ccc1C` [Compound 51], for which the results for the IC50 against human SGLT1 and against human SGLT2 were 35 nM and 1 nM, respectively.
The corresponding values for `[2H]C1([2H])Cc2cc(Cc3cc([C@@H]4O[C@H](CO)[C@@H](O)[C@H](O)[C@H]4O)c(OC)cc3OC)ccc21` (single isomer, unassigned) [Compound 84] are 63 nM and 2 nM.
For `[2H]C1([2H])Cc2ccc(Cc3cc([C@@H]4O[C@H](CO)[C@@H](O)[C@H](O)[C@H]4O)ccc3C)cc21` [Compound 65, (2S,3R,4R,5S,6R)-2-[3-[(8,8-dideuterium)bicyclo[4.2.0]octa-1(6),2,4-trien-3-ylmethyl]-4-methylphenyl]-6-(hydroxymethyl)oxane-3,4,5-triol] the same measures were 24 nM and 3 nM.
The corresponding values for `CCOc1cc(OC)c(Cc2ccc3c(c2)CC3)cc1[C@@H]1O[C@H](CO)[C@@H](O)[C@H](O)[C@H]1O` [Compound 114] are 37 nM and 2 nM.
Consider `COc1cc(OCF)c([C@@H]2O[C@H](CO)[C@@H](O)[C@H](O)[C@H]2O)cc1Cc1ccc2c(c1)CC2` [Compound 41, (2S,3R,4R,5S,6R)-2-(5-((1,2-dihydrocyclobutabenzen-4-yl)methyl)-2-(fluoromethoxy)-4-methoxyphenyl)-6-(hydroxymethyl)-tetrahydro-2H-pyran-3,4,5-triol], for which the IC50 on human SGLT1 is 106 nM; on human SGLT2, 18 nM.
With `Cc1ccc([C@@H]2O[C@H](CO)[C@@H](F)[C@H](O)[C@H]2O)cc1C(F)(F)c1ccc2c(c1)CC2` [Compound 142], the IC50 at human SGLT1 was found to be 133 nM; against human SGLT2, 23 nM.
Take `CCc1cc(O)c([C@@H]2O[C@H](CO)[C@@H](O)[C@H](O)[C@H]2O)cc1Cc1ccc2c(c1)CC2` [Compound 12]: the figures for the IC50 at human SGLT1 and against human SGLT2 were 3 nM and 2 nM, respectively.
Consider `OC[C@H]1O[C@@H](c2cc(Cc3ccc4c(c3)CC4)c(Cl)cc2O)[C@H](O)[C@@H](O)C1(F)F` [Compound 102], for which the IC50 came to 12 nM against human SGLT1 and 2 nM against human SGLT2.
Consider `OC[C@H]1O[C@@H](c2cccc(Cc3ccc4c(c3)CC4)c2)[C@H](O)[C@@H](O)[C@@H]1O` [Compound 24, (2S,3R,4R,5S,6R)-2-(3-((1,2-dihydrocyclobutabenzen-4-yl)methyl)phenyl)-6-(hydroxymethyl)-tetrahydro-2H-pyran-3,4,5-triol], for which, at human SGLT1, testing at 0.3 µM gave an inhibition of 5%. Also, the inhibition at 0.03 µM at human SGLT2 amounted to 23%.
`Cc1cc(OC2CC2)c([C@@H]2O[C@H](CO)[C@@H](O)[C@H](O)[C@H]2O)cc1Cc1ccc2c(c1)CC2` [Compound 118]: the IC50 at human SGLT1 was found to be 22 nM; on human SGLT2 it was 1 nM.
For `COc1cc(OC)c([C@@H]2O[C@H](CO)C(F)(F)[C@H](O)[C@H]2O)cc1Cc1ccc2c(c1)CC2` [Compound 108] the same measures were 27 nM and 1 nM.
In the case of `[2H]C1([2H])Cc2ccc(Cc3cc([C@@H]4O[C@H](CO)[C@@H](O)[C@H](O)[C@H]4O)c(O)cc3C)cc21` (single isomer, unassigned) [Compound 61], the IC50 at human SGLT1 was determined as 7 nM; against human SGLT2 it was 4 nM.
The corresponding values for `COc1cc(F)c([C@@H]2O[C@H](CO)[C@@H](O)[C@H](O)[C@H]2O)cc1Cc1ccc2c(c1)CC2` [Compound 31, (2S,3R,4R,5S,6R)-2-(5-((1,2-dihydrocyclobutabenzen-4-yl)methyl)-2-fluoro-4-methoxyphenyl)-6-(hydroxymethyl)-tetrahydro-2H-pyran-3,4,5-triol] are 84 nM and 10 nM.
For `[2H]C1([2H])Cc2ccc(Cc3cc([C@@H]4O[C@H](CO)[C@@H](O)[C@H](O)[C@H]4O)ccc3Cl)cc21` (single isomer, unassigned) [Compound 62] the same measures were 168 nM and 9 nM.
As for `COc1cc(C)c(Cc2ccc3c(c2)CC3)cc1[C@@H]1O[C@H](CO)[C@@H](O)[C@H](O)[C@H]1O` [Compound 7, (2S,3R,4R,5S,6R)-2-(5-((1,2-dihydrocyclobutabenzen-4-yl)methyl)-2-methoxy-4-methylphenyl)-6-(hydroxymethyl)-tetrahydro-2H-pyran-3,4,5-triol], the IC50 against human SGLT1 turned out to be 48 nM; against human SGLT2 it was 1 nM.
On to `COc1cc(OC(F)(F)F)c([C@@H]2O[C@H](CO)[C@@H](O)[C@H](O)[C@H]2O)cc1Cc1ccc2c(c1)CC2` [Compound 34, (2S,3R,4R,5S,6R)-2-(5-((1,2-dihydrocyclobutabenzen-4-yl)methyl)-4-methoxy-2-(trifluoromethoxy)phenyl)-6-(hydroxymethyl)-tetrahydro-2H-pyran-3,4,5-triol], for which, at human SGLT1, the inhibition at 0.3 µM was 24%. This compound also yielded an inhibition at 0.03 µM on human SGLT2 of 72%.
Regarding `[2H]C1([2H])Cc2cc(Cc3cc([C@@H]4O[C@H](CO)[C@@H](O)[C@H](O)[C@H]4O)ccc3OC)ccc21` (single isomer, unassigned) [Compound 82], the values for the IC50 against human SGLT1 and against human SGLT2 were 30 nM and 8 nM, respectively.
At human SGLT1, `OC[C@H]1O[C@@H](c2cc(Cc3ccc4c(c3)CC4)ccc2O)[C@H](O)[C@@H](O)[C@@H]1O` [Compound 25, (2S,3R,4R,5S,6R)-2-(5-{bicyclo[4.2.0]octa-1(6),2,4-trien-3-ylmethyl}-2-hydroxyphenyl)-6-(hydroxymethyl)oxane-3,4,5-triol] came in with an inhibition at 0.3 µM of 36%. The compound further registered an inhibition at 0.03 µM against human SGLT2 of 71%.
The corresponding values for `OC[C@H]1O[C@@H](c2cc(Cc3ccc4c(c3)CC4)c(F)cc2O)[C@H](O)[C@@H](O)[C@@H]1O` [Compound 19, (2S,3R,4R,5S,6R)-2-(5-(bicyclo[4.2.0]octa-1(6),2,4-trien-3-ylmethyl)-4-fluoro-2-hydroxyphenyl)-6-(hydroxymethyl)tetrahydro-2H-pyran-3,4,5-triol] are 62% and 38%.
With `[2H]C([2H])(c1ccc2c(c1)CC2)c1cc([C@@H]2O[C@H](CO)[C@@H](O)[C@H](O)[C@H]2O)ccc1Cl` (single isomer, unassigned) [Compound 54], the IC50 is 63 nM at human SGLT1 and 1 nM against human SGLT2.
Regarding `[2H]C1([2H])Cc2ccc(Cc3cc([C@@H]4O[C@H](CO)[C@@H](O)[C@H](O)[C@H]4O)ccc3CC)cc21` [Compound 66, (2S,3R,4R,5S,6R)-2-(3-((2,2-dideuterium-1,2-dihydrocyclobutabenzen-4-yl)methyl)-4-ethylphenyl)-6-(hydroxymethyl)-tetrahydro-2H-pyran-3,4,5-triol], the IC50 against human SGLT1 is 32 nM; at human SGLT2, 3 nM.
`[2H]C([2H])(c1ccc2c(c1)CC2)c1cc([C@@H]2O[C@H](CO)[C@@H](O)[C@H](O)[C@H]2O)c(OC)cc1C` [Compound 53, (2S,3R,4R,5S,6R)-2-(5-(dideuterium(1,2-dihydrocyclobutabenzen-4-yl)methyl)-2-methoxy-4-methylphenyl)-6-(hydroxymethyl)-tetrahydro-2H-pyran-3,4,6-triol]: the figures for the IC50 against human SGLT1 and against human SGLT2 were 80 nM and 1 nM, respectively.
For `[2H]C([2H])(c1ccc2c(c1)CC2)c1cc([C@@H]2O[C@H](CO)[C@@H](O)[C@H](O)[C@H]2O)c(OC)cc1OC` (single isomer, unassigned) [Compound 59] the same measures were 140 nM and 3 nM.
